Experimental data as given in article PMC4689404, “2-Benzazolyl-4-Piperazin-1-Ylsulfonylbenzenecarbohydroxamic Acids as Novel Selective Histone Deacetylase-6 Inhibitors with Antiproliferative Activity” (PLoS ONE, 2015).
Like-named read-outs stand apart in the source and are kept apart here.

Key:
[1] = tested on: HCC4017; assay: MTS viability assay; assay type: cell-based, human; conditions: for IC50: Patient A cancer line, MTS, 4 days, read-out: Antiproliferative activity IC50, HCC4017; for Selectivity (HBEC-30KT vs HCC4017): Patient A
Method: (§1) Immortalized normal human bronchial epithelial cells (also provided by Dr. John D. Minna) were cultured in KSFM supplemented with pituitary extract and EGF. For viability assays, cells were plated on 96 well plates and grown overnight. Cells were then exposed to increasing doses of the indicated compounds for 4 days and their viability assayed using the Promega Cell Titer 96 AQueous One kit per the manufacturer’s protocol. All doses were tested in 4–8 replicates. IC50 values were calculated using the in-house software DIVISA.

[2] = tested on: HCC4018; assay: MTS viability assay; assay type: cell-based, human; conditions: for IC50: Patient B cancer line, MTS, 4 days, read-out: Antiproliferative activity IC50, HCC4018; for Selectivity (HBEC-34KT vs HCC4018): Patient B
Method: as §1

[3] = tested on: HBEC-30KT; assay: MTS viability assay; assay type: cell-based, human; conditions: Patient A normal line, 4 days, read-out: Antiproliferative activity IC50, HBEC-30KT
Method: as §1, with “Lung cancer cells (kindly provided by Dr. John D. Minna, [13, 21]) were maintained in RPMI 1640 media supplemented with 10% FBS. Immortalized” for “Immortalized”

[4] = tested on: HBEC-34KT; assay: MTS viability assay; assay type: cell-based, human; conditions: Patient B normal line, 4 days, read-out: Antiproliferative activity IC50, HBEC-34KT
Method: as §1, with “Lung cancer cells (kindly provided by Dr. John D. Minna, [13, 21]) were maintained in RPMI 1640 media supplemented with 10% FBS. Immortalized” for “Immortalized”

[5] = tested on: epigenetically silenced GFP transgene in LDR cells; assay: locus derepression (LDR) assay, GFP induction; assay type: cell-based; design: key to GFP Induc.: -: —negative; conditions: for GFP Induc.: Fig 4
Method: LDR cells were maintained in DMEM with L-glutamine and high glucose, 1 mM sodium pyruvate, 0.1 mM MEM non-essential amino acids, 1% v/v penicillin-streptomycin and 10% heat inactivated FBS. Cells were seeded on glass bottom chambers at low-medium density and allowed to attach overnight. Compounds were then added for 24h at the indicated dose and cells were imaged under a fluorescent microscope equipped with a camera using a 20 or 40X objective. All images shown were exposed for identical time.

[6] = molecular target: T1, partially purified HDAC1 from mouse A20 cells (Mus musculus, UniProt O09106); assay: HDAC1 activity assay, partially purified enzyme, [3H]acetate-prelabeled histones; assay type: biochemical; conditions: Table 3; partially purified HDAC1; read-out: HDAC1 IC50
T1 construct: from mouse A20 cells was used as enzyme source; endogenous in cells; host or cells: mouse A20 cells
T1 sequence (O09106 whole entry): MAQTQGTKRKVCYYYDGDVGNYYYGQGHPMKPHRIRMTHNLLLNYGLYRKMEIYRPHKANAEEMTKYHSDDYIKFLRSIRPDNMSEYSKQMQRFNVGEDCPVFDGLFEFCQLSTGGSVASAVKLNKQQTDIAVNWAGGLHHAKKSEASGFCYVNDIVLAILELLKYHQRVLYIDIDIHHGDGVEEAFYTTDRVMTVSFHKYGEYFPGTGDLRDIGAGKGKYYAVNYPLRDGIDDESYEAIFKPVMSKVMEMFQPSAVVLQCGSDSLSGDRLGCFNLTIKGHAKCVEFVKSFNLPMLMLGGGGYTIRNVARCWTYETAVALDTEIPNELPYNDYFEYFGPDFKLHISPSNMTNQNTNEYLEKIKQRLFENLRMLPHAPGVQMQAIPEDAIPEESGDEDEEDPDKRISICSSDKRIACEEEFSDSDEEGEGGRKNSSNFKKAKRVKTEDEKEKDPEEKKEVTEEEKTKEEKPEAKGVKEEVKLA
Description: For inhibition assays, partially purified HDAC1 (70–80 fold enriched relative to crude samples) from mouse A20 cells was used as enzyme source. HDAC1 activity was purified by a combination of anion exchange chromatography (Mono Q), affinity chromatography (Poly-lysin agarose, Heparin Sepharose) and TSK size exclusion chromatography (Jesacher and Loidl, unpublished). HDAC1 protein was identified by immunoblotting using anti mouse HDAC1 antibodies (collaboration with Zymed Laboratories, Inc., San Francisco, California, USA). HDAC activity was determined as described by Sendra et al., [20] using [^3H]acetate-prelabeled chicken reticulocyte histones as substrate. 50 μL of mouse HDAC1 were incubated with different concentrations of compounds for 10 min on ice and 10 μL of total [^3H] acetate pre-labeled chicken reticulocyte histones (4 mg/mL) were added, resulting in a concentration of 41 μM. This mixture was incubated at 37°C for 1 h. The reaction was stopped by addition of 50 μL of 1 M HCl/0.4 M acetylacetate and 1 mL ethylacetate. After centrifugation at 10000 x g for 5 min an aliquot of 600 μL of the upper phase was counted for radioactivity in 3 mL liquid scintillation cocktail.

[7] = molecular target: T2, recombinant HDAC1 (Homo sapiens, UniProt Q13547); assay: comparative HDAC inhibition assay (Millipore fluorometric kit); assay type: biochemical; conditions: recombinant HDAC1, fluorometric substrate; Table 4
T2 construct: purchased Epigenetek
T2 sequence (Q13547 whole entry): as the sequence (O09106 whole entry) above, with K8R, E399D, D424E counted along it
Method: (§2) For the direct comparison of HDAC1 vs. HDAC6 inhibition, HDAC activity was analyzed using the HDAC Assay Kit from Millipore (17–356). Briefly, recombinant HDAC1 or recombinant HDAC6 (both purchased from Epigenetek, Purity of HDAC1 is more than 60% and purity HDAC6 is more than 85%). was incubated with the fluorometric HDAC substrate according to the manufacturer’s protocol in the presence of DMSO vehicle or increase compound doses. In a secondary activator reaction, the fluorophore is only cleaved from the deacetylated substrate, allowing for quantification. Fluorescence was quantified on a FLUOstar-Optima or a FLUOstar Omega plate reader (BMG Biosciences).

[8] = molecular target: T3, recombinant HDAC6 (Homo sapiens, UniProt Q9UBN7); assay: as above; assay type: biochemical; conditions: for IC50: read-out: HDAC6 IC50
T3 construct: purchased Epigenetek
T3 sequence (Q9UBN7 1-1215): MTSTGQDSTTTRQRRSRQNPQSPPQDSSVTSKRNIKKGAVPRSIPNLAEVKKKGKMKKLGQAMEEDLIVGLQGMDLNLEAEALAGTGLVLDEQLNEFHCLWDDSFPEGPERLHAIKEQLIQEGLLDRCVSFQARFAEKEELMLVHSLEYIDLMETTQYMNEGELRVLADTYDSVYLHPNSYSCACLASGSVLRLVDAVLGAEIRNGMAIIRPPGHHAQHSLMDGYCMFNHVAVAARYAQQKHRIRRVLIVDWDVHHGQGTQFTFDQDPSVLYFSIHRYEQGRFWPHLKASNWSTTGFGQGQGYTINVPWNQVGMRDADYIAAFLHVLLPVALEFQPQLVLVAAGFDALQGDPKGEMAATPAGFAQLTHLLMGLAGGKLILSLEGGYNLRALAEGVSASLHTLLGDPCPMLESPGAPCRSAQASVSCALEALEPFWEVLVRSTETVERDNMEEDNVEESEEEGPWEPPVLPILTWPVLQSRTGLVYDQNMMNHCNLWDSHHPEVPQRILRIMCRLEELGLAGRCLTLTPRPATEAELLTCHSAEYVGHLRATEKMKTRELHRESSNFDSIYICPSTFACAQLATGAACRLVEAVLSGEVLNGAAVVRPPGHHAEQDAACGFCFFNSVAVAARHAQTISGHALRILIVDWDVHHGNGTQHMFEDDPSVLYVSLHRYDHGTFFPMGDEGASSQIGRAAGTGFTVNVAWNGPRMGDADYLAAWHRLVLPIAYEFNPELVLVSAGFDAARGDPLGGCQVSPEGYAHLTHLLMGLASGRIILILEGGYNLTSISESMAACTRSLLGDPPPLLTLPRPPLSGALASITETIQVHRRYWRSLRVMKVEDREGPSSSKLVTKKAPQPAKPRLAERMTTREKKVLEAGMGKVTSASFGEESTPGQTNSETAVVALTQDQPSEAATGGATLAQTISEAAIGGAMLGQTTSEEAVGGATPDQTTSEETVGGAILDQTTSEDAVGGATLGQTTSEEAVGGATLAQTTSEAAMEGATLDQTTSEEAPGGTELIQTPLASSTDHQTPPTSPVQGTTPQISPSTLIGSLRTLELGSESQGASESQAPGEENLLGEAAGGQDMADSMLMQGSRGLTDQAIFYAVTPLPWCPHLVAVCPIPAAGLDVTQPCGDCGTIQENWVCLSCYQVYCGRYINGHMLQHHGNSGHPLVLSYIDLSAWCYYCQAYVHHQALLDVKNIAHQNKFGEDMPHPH
Method: as §2

[9] = tested on: HDAC1; conditions: read-out: HDAC1 IC50; Table 4; cited from earlier work
[10] = tested on: HDAC6; conditions: read-out: HDAC6 IC50; Table 4; cited from earlier work
[11] = tested on: HDAC1; conditions: Table 4; cited from earlier work

In the case of CCC(=O)CCCCC[C@@H]1NC(=O)[C@H]2CCCCN2C(=O)[C@H]([C@@H](C)CC)NC(=O)[C@H](Cc2cn(OC)c3ccccc23)NC1=O [Apicidin, reference compound], the IC50 ([1]; Homo sapiens, HCC4017, 96 h) is reported as 120 nM, the “Selectivity (HBEC-30KT vs HCC4017)” value [1] is reported as 0.75 and the IC50 ([2]; Homo sapiens, 96 h) is reported as 30 nM. The “Selectivity (HBEC-34KT vs HCC4018)” value [2] was 26.3, the “selectivity higher by a factor compared to compounds 9b-d” value ([2]; cells derived from patient B) was 7–13 fold and the IC50 ([3]; Homo sapiens, 96 h) was 90 nM. It also gave an IC50 ([4]; Homo sapiens, 96 h) of 790 nM.

For O=C(NO)c1cccc(S(=O)(=O)N2CCN(c3nc4ccccc4[nH]3)CC2)c1 [Compound 8a, 3-[4(1H -Benzimidazol-2-yl)-piperazin-1-sulfonyl]-N -hydroxy-benzamid], the “GFP Induc.” value [5] was “-” and the melting point was 349 to 350 °C.

For Cn1c(N2CCN(S(=O)(=O)c3cccc(C(=O)NO)c3)CC2)nc2ccccc21 [Compound 8b, 3-[4-(1-Methyl-Benzimidazol-2-yl)-piperazin-1-sulfonyl]-N -hydroxy-benzamid], the “GFP Induc.” value [5] was “-”, the IC50 [6] was 316000 nM and the melting point was 167 to 169 °C.

With O=C(NO)c1cccc(S(=O)(=O)N2CCN(c3nc4ccccc4o3)CC2)c1 [Compound 8c, 3-(4-Benzoxazol-2-yl-piperazin-1-sulfonyl)-N -hydroxy-benzamid] the “GFP Induc.” value [5] was “-”, the IC50 [6] was 216000 nM and the melting point was 257 to 262 °C.

With O=C(NO)c1cccc(S(=O)(=O)N2CCN(c3nc4ccccc4s3)CC2)c1 [Compound 8d, 3-(4-Benzothiazol-2-yl-piperazin-1-sulfonyl)-N -hydroxy-benzamid] the “GFP Induc.” value [5] was “-”, the IC50 [6] was 140000 nM and the melting point was 207 to 210 °C.

For O=C(NO)c1ccc(S(=O)(=O)N2CCN(c3nc4ccccc4[nH]3)CC2)cc1 [Compound 9a, 4-[4(1H-Benzimidazol-2-yl)-pipreazin-1-sulfonyl]-N-hydroxy-benzamid], the “GFP induction / activity in the LDR assay” value [5] was “inactive”, the “GFP Induc.” value [5] was “-” and the IC50 [6] was 12400 nM. The IC50 ([1]; Homo sapiens, HCC4017, 96 h) was > 10000 nM, the “cellular activity” value ([1]; MTS viability, lung cancer and normal lines) was “no cellular activity” and the IC50 ([2]; Homo sapiens, 96 h) was > 10000 nM. The IC50 ([3]; Homo sapiens, 96 h) was > 10000 nM, the IC50 ([4]; Homo sapiens, 96 h) was > 10000 nM and the IC50 [7] was 6000 ± 2900 nM. The IC50 ([8]; Table 3) was 1000 nM, the “Selectivity Index HDAC1/HDAC6” value ([8]; Table 4) was 6.5 and the IC50 ([8]; recombinant HDAC6, fluorometric substrate, Table 4) was 930 ± 750 nM. For the same molecule, the melting point was 382 to 383 °C (dec.).

In the case of C/C=C1\NC(=O)[C@H]2CSSCC/C=C/[C@H](CC(=O)N[C@H](C(C)C)C(=O)N2)OC(=O)[C@H](C(C)C)NC1=O [Depsi., Depsipeptide, reference compound], the “Selectivity (HBEC-30KT vs HCC4017)” value [1] is reported as 0.14, the IC50 [1] is reported as 6.5 nM and the “toxicity to normal vs patient-matched cancer cells” value ([1]; both paired cell lines) is reported as “more toxic to normal cells than to the patient-matched cancer cells”. The “Selectivity (HBEC-34KT vs HCC4018)” value [2] was 0.31, the IC50 [2] was 4.2 nM and the IC50 [3] was 0.9 nM. For the same molecule, the IC50 [4] was 1.3 nM.

For CC(/C=C/C(=O)NO)=C\[C@@H](C)C(=O)c1ccc(N(C)C)cc1 [TSA, trichostatin A, reference compound], the IC50 [1] was 73 nM, the IC50 [2] was 23 nM and the IC50 [3] was 285 nM. The IC50 [4] was 346 nM, the IC50 [9] was […] and the IC50 [10] was 8.6 ± 1.4 nM.

For CN1CCc2c(c3ccccc3n2Cc2ccc(C(=O)NO)cc2)C1 [Tubastatin A], the IC50 [11] is given as […].
